Laboratory results as given in US10231954B2, “Neurodegenerative therapies” (LYTIX BIOPHARMA AS, priority 2014, dated 2019).

Tests used:
[1] = target: T1, TBK1 (Homo sapiens, UniProt Q9UHD2); experiment: Kinase profiling TBK1; assay type: biochemical; details: 100 micromolar inhibitor concentration, 100 is no change
T1 sequence (Q9UHD2 1-729): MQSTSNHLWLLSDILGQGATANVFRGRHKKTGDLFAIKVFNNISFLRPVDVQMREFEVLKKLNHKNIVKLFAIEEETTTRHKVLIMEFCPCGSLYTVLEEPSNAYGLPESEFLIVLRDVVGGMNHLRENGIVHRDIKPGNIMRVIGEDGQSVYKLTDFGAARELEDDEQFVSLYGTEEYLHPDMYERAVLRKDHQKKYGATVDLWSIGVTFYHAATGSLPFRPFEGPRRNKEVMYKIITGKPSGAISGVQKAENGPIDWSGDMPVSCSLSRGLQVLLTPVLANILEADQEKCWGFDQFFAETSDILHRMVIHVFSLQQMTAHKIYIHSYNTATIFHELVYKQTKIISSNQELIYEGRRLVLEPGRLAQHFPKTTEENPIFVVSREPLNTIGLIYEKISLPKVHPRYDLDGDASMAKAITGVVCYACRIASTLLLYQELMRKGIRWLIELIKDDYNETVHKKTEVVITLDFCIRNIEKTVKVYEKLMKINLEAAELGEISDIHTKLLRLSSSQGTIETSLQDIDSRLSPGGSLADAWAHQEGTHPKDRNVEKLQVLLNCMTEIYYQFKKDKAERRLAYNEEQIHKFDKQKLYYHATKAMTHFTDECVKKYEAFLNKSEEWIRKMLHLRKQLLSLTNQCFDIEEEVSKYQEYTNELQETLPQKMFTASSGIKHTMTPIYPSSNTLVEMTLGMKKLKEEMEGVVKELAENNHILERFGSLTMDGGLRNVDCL
Source text: (§1) Any value less that 25 is considered to be highly significant inhibition.

[2] = target: T2, PDK1 (Homo sapiens, UniProt O15530); experiment: Kinase profiling PDK1; assay type: biochemical; details: 100 micromolar inhibitor concentration, 100 is no change
T2 sequence (O15530 1-556): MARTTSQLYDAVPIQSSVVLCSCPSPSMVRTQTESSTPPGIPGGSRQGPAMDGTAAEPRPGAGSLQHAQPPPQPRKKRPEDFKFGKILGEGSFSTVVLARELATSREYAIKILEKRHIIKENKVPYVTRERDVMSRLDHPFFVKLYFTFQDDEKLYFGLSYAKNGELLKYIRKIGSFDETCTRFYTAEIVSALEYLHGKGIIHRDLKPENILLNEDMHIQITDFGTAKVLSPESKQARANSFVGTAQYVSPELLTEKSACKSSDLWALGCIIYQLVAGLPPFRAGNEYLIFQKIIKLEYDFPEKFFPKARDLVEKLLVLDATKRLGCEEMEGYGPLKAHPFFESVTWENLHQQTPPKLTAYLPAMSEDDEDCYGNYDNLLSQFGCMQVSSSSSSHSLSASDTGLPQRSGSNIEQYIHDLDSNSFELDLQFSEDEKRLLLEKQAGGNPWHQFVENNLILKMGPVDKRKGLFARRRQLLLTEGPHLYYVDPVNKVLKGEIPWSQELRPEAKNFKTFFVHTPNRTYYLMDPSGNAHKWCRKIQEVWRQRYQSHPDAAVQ
Source text: as §1

[3] = target: Src (Homo sapiens, UniProt P12931); experiment: Kinase profiling Src; assay type: biochemical; details: 100 micromolar inhibitor concentration, 100 is no change
Chain of Src (P12931 whole entry, species assumed): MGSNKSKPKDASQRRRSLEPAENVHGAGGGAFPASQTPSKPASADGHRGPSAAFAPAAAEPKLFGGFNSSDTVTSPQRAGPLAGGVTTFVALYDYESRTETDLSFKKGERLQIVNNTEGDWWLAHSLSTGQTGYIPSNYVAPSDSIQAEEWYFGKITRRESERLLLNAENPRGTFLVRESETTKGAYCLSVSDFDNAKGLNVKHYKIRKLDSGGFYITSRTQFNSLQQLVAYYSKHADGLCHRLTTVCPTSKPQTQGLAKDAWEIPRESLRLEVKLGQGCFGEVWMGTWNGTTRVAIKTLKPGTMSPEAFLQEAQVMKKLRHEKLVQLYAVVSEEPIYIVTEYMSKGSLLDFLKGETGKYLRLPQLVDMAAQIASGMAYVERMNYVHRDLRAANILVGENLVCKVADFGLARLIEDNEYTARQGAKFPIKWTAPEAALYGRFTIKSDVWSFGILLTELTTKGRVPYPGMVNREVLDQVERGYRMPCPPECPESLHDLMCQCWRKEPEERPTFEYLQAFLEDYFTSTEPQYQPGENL
Source text: as §1

[4] = target: HER4 (Homo sapiens, UniProt Q15303); experiment: Kinase profiling HER4; assay type: biochemical; details: 100 micromolar inhibitor concentration, 100 is no change
Chain of HER4 (Q15303 26-1308, species assumed): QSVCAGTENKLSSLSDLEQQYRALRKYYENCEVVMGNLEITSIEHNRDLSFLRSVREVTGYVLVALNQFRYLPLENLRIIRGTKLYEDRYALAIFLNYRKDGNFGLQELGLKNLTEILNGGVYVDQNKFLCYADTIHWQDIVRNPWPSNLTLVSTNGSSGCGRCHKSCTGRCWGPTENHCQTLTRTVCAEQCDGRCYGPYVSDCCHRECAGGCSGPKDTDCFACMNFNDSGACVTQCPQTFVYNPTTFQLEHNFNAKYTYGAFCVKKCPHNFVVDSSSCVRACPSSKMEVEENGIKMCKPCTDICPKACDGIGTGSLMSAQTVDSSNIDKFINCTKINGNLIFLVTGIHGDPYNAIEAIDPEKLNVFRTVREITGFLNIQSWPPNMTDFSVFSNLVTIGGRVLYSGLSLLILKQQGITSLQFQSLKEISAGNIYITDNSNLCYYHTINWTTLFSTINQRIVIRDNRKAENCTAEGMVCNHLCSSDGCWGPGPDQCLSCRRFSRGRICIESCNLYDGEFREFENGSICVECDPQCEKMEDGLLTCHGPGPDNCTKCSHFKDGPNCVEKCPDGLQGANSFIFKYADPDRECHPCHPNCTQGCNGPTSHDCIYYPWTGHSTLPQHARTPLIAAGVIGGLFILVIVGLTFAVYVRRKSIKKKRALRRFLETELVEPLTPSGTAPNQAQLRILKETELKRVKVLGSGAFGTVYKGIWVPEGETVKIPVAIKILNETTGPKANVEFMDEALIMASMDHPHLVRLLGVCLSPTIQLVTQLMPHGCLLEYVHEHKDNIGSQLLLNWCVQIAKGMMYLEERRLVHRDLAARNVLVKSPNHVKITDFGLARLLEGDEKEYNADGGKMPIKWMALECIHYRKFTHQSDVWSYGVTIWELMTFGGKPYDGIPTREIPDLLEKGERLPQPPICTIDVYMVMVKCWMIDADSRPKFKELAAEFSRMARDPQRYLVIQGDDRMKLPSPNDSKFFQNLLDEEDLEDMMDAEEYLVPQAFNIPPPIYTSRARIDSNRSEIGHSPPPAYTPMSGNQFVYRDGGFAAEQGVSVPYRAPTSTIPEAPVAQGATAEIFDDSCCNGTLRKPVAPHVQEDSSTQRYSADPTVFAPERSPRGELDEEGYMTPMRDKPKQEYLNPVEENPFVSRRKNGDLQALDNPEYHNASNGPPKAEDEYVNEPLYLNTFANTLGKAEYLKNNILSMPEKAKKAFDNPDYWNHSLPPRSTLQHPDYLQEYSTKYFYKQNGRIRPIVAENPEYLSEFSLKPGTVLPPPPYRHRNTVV
Source text: as §1

[5] = target: MSK1 (Homo sapiens, UniProt O75582); experiment: Kinase profiling MSK1; assay type: biochemical; details: 100 micromolar inhibitor concentration, 100 is no change
Chain of MSK1 (O75582 whole entry, species assumed): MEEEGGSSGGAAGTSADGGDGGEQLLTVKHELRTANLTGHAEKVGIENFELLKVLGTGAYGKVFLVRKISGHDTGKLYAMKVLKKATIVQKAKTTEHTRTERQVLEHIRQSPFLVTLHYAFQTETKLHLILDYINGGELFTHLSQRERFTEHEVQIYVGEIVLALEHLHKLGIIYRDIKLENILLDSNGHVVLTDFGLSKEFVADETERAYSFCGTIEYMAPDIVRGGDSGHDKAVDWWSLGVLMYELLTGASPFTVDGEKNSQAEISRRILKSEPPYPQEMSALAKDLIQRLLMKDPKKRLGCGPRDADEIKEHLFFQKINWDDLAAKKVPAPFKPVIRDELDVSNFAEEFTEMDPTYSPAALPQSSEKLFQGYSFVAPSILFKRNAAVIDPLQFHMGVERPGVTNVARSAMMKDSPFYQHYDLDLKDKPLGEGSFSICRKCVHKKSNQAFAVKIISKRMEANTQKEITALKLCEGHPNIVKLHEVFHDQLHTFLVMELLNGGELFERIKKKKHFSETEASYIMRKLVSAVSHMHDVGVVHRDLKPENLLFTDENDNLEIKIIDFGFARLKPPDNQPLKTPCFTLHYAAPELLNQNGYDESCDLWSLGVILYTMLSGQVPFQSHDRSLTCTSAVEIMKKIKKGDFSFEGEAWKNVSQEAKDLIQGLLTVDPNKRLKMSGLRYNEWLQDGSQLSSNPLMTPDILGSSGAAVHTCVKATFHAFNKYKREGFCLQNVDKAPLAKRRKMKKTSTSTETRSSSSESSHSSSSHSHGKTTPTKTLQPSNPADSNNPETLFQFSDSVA
Source text: as §1

[6] = target: Lck (Homo sapiens, UniProt P06239); experiment: Kinase profiling Lck; assay type: biochemical; details: 100 micromolar inhibitor concentration, 100 is no change
Chain of Lck (P06239 whole entry, species assumed): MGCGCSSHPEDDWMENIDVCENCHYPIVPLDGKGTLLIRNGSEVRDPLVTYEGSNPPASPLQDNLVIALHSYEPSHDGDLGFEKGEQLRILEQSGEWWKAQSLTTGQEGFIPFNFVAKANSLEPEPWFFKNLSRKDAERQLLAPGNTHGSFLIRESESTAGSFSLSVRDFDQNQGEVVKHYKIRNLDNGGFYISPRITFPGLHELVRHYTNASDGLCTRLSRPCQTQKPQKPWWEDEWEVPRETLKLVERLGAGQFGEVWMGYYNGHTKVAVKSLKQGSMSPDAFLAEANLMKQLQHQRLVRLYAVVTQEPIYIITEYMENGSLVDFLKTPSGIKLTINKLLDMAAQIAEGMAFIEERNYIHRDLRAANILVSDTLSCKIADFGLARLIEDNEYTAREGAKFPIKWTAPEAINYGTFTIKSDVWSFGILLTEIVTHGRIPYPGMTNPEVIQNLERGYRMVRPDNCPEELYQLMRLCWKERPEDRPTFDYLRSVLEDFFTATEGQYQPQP
Source text: as §1

[7] = target: SYK (Homo sapiens, UniProt P43405); experiment: Kinase profiling SYK; assay type: biochemical; details: 100 micromolar inhibitor concentration, 100 is no change
Source text: as §1

[8] = target: EF2K (Homo sapiens, UniProt O00418); experiment: Kinase profiling EF2K; assay type: biochemical; details: 100 micromolar inhibitor concentration, 100 is no change
Source text: as §1

[9] = target: T3, PKCz (Homo sapiens, UniProt Q05513); experiment: Kinase profiling PKCz; assay type: biochemical; details: 100 micromolar inhibitor concentration, 100 is no change
T3 sequence (Q05513 1-592): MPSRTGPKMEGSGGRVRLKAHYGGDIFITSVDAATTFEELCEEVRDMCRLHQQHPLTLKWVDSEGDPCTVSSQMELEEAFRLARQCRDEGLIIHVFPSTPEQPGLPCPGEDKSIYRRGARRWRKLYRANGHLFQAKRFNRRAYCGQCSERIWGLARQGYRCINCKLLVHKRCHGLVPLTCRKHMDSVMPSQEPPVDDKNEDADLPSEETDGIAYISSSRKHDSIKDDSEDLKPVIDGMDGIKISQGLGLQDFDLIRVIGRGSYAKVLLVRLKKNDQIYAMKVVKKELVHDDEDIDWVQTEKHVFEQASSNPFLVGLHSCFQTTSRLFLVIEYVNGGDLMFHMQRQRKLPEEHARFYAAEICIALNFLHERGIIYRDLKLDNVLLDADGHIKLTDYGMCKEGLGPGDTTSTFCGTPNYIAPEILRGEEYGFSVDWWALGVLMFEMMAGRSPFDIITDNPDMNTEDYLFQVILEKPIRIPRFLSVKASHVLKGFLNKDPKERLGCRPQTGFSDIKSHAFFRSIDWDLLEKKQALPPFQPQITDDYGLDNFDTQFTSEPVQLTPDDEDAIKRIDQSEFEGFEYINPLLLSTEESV
Source text: as §1

[10] = target: SRPK1 (Homo sapiens, UniProt Q96SB4); experiment: Kinase profiling SRPK1; assay type: biochemical; details: 100 micromolar inhibitor concentration, 100 is no change
Chain of SRPK1 (Q96SB4 whole entry, species assumed): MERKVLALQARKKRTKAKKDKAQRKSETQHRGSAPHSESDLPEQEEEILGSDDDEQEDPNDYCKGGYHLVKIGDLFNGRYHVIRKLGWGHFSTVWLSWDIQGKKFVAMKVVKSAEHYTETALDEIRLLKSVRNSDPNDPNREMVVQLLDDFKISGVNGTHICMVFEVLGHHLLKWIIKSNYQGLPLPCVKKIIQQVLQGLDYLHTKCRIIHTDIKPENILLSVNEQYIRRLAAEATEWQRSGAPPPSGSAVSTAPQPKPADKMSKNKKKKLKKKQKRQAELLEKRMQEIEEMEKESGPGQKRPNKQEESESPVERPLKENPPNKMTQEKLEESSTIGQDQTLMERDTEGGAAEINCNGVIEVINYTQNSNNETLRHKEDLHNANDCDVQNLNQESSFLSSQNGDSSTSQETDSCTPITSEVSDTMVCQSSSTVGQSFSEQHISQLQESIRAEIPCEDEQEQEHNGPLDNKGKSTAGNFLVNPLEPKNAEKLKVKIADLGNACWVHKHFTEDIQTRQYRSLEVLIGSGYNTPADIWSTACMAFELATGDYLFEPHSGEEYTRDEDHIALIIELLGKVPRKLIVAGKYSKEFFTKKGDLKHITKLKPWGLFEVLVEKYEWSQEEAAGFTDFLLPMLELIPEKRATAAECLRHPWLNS
Source text: as §1

[11] = target: T4, SGK1 (Homo sapiens, UniProt O00141); experiment: Kinase profiling SGK1; assay type: biochemical; details: 100 micromolar inhibitor concentration, 100 is no change
T4 sequence (O00141 1-431): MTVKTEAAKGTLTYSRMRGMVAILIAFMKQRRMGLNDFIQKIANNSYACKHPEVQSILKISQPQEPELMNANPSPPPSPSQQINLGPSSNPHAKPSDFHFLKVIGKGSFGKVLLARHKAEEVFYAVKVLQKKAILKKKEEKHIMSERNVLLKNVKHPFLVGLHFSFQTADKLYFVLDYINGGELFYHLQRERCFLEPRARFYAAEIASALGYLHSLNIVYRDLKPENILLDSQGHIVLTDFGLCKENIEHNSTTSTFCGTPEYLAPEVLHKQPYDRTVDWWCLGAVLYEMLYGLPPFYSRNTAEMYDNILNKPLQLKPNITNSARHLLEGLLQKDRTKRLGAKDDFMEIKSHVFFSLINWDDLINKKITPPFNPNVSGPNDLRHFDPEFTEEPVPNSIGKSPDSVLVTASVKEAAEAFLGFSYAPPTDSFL
Source text: as §1

[12] = system: AMPK (hum); experiment: Kinase profiling AMPK (hum); assay type: biochemical, human; details: 100 micromolar inhibitor concentration; 100 is no change
Source text: as §1

[13] = target: MKK1 (Homo sapiens, UniProt Q02750); experiment: Kinase profiling MKK1; assay type: biochemical; details: 100 micromolar inhibitor concentration, 100 is no change
Chain of MKK1 (Q02750 whole entry, species assumed): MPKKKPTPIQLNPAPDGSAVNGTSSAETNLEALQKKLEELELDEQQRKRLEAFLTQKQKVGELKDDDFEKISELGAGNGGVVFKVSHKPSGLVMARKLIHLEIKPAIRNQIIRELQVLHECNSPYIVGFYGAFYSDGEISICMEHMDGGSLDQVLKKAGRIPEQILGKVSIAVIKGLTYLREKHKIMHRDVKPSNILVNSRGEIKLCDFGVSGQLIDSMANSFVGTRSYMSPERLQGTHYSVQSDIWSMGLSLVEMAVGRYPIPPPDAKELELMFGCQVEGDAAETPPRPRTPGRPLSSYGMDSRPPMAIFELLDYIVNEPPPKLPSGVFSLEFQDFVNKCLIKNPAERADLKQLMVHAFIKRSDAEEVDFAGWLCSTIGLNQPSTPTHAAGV
Source text: as §1

| SMILES | residual kinase activity, TBK1 [1] | residual kinase activity, PDK1 [2] | residual kinase activity, Src [3] | residual kinase activity, HER4 [4] | residual kinase activity, MSK1 [5] | residual kinase activity, Lck [6] | residual kinase activity, SYK [7] | residual kinase activity, EF2K [8] | residual kinase activity, PKCz [9] | residual kinase activity, SRPK1 [10] | residual kinase activity, SGK1 [11] | residual kinase activity, AMPK (hum) [12] | residual kinase activity, MKK1 [13] | further results |
| --- | --- | --- | --- | --- | --- | --- | --- | --- | --- | --- | --- | --- | --- | --- |
| O=C(Nc1nc2ccc(O)cc2s1)c1ccccn1 [Compound 03-12] | 68 | 88 | 105 | 33 | 90 | 82 | 99 | 69 | 88 | 63 | 88 | 90 | 80 | – |
| CC(=O)Nc1nc2ccccc2s1 [Compound 03-32] | 88 | 96 | 113 | 78 | 98 | 91 | 116 | 89 | 126 | 59 | 92 | 86 | 81 | – |
| CC(=O)Nc1ccc(C(=O)Nc2nc3cc(O)ccc3s2)cc1 [MS:LY-2-87] | – | 69 | – | – | – | – | – | – | 83 | – | 43 | – | 69 | – |
| CC(=O)Nc1cccc(C(=O)Nc2nc3cc(O)ccc3s2)c1 [MS:LY-2-89] | – | 44 | – | – | – | – | – | – | 80 | – | 28 | – | 56 | – |
| CC(=O)Nc1nc2ccc(O)cc2s1 [Compound 01-71] | – | – | – | – | – | – | – | – | – | – | – | – | – | remaining activity at 100 µM ([1]; read-out: residual kinase activity, TBK1): 43%; remaining activity at 100 µM ([2]; read-out: residual kinase activity, PDK1): 63%; remaining activity at 100 µM ([3]; read-out: residual kinase activity, Src): 57%; remaining activity at 100 µM ([4]; read-out: residual kinase activity, HER4): 36%; remaining activity at 100 µM ([5]; read-out: residual kinase activity, MSK1): 31%; remaining activity at 100 µM ([6]; read-out: residual kinase activity, Lck): 192%; remaining activity at 100 µM ([7]; read-out: residual kinase activity, SYK): 71%; remaining activity at 100 µM ([8]; read-out: residual kinase activity, EF2K): 75%; remaining activity at 100 µM ([9]; read-out: residual kinase activity, PKCz): 74%; remaining activity at 100 µM ([10]; read-out: residual kinase activity, SRPK1): 44%; remaining activity at 100 µM ([11]; read-out: residual kinase activity, SGK1): 33%; remaining activity at 100 µM ([13]; read-out: residual kinase activity, MKK1): 35% |
